Experimental data as given in patent US7655677B2, “Composition and method for controlling house insect pest” (priority 2002, dated 2010).

How the values were obtained:
Assay type in all cases: in vivo
Reticulitermes speratus [1] = assay: Test Example 10: coated Japanese red pine wood block, termite mortality and weight loss after 24 days; conditions: wood block coated with 0.2% solution
Method: Mean weight loss (%) of the wood block=(W1−W2/W1)×100
A solution containing a sample compound in a predetermined concentration was coated by a paint brush in an amount of 110±10 mg on a rectangular parallelpiped wood block of Japanese red pine (20 mm×10 mm×10 mm). The treated wood block was naturally dried in a dark room of 25° C. for 14 days. Then, the treated wood block and a non-treated wood block were dried at a temperature of 60° C. for 72 hours, and their weights (W1) were measured, and they were used as test specimens. Such a test specimen was put into a cylindrical cup made of acrylic resin (i.e. a cup having a hole with a diameter of 10 mm formed in the bottom and having hard plaster (Dental Stone) set at the bottom in a thickness of 10 mm), and 150 termite workers and 10 termite soldiers (Reticulitermes speratus) were released thereon. The cup was placed in a container having wet cotton laid over the bottom, and the container was maintained at room temperature of 25° C. for 24 days, whereupon the mortality of termites in the cup was examined. Further, the test specimen was taken out from the cup, and the deposited substance was removed from the surface of the test specimen. After drying at a temperature of 60° C. for 72 hours, it was weighed to obtain the weight (W2), whereupon the mean weight loss was calculated.

Priplaneta americana = assay: Test Example 12: mouse feed poison bait, mortality with time; conditions: bait 1%
Method: 1 g of feeding stuff for mice was treated with 0.5 ml of an acetone solution containing 10 mg of a sample compound and put in a constant temperature chamber at 40° C. for 20 hours to sufficiently evaporate acetone, whereby a poison bait chemical containing 1% of the sample compound was prepared. Then, this poison bait chemical was put into a cup together with a wet cotton, and 10 […] (Priplaneta americana) were released and kept at 25° C. in a breeding room, whereby the mortality was examined as the time passed.

Coptotermes formosanus [2] = assay: Test Example 13: Japanese red pine poison bait, termite mortality and abnormal ratio with time
Source text: A wood block of Japanese red pine (2 cm×2 cm×0.5 cm) subjected to boiling treatment in hot water, was immersed in a methanol solution of a sample compound, and then, it was dried to obtain a Japanese red pine poison bait chemical containing the sample compound in a predetermined concentration. This poison bait chemical was put into a cylindrical cup made of acrylic resin (i.e. a cup having a hole with a diameter of 10 mm formed in the bottom and having hard plaster (Dental Stone) set at the bottom in the thickness of 10 mm), and 15 termite workers (Coptotermes formosanus) were released thereon. The cup was placed in a container having wet cotton laid over the bottom, and the container was maintained at room temperature of 25° C., whereby the number of dead termites and abnormal termites in the cup was examined as the time passed, and the mortality was calculated.

Coptotermes formosanus [3] = assay: Test Example 14: Japanese red pine poison bait, spread from bait-treated to non-treated termites; conditions: for Mortality TS (Termite soldiers): 5 non-treated soldiers; for Mortality TW (Termite workers): 5 treated + 5 non-treated workers
Method: A Japanese red pine poison bait chemical prepared in the same manner as in Test Example 13, was placed in a cylindrical cup made of acrylic resin (i.e. a cup having a hole with a diameter of 10 mm formed in the bottom and having hard plaster (Dental Stone) set at the bottom in a thickness of 10 mm), and 5 termite workers (Coptotermes formosanus) starved for 3 days, were released and permitted to ingest for 48 hours. Such bait-treated 5 alive termite workers were transferred together with non-treated 5 termite workers and 5 termite soldiers to a cup wherein a filter paper containing water was placed, and they were kept at room temperature of 25° C., whereby the number of dead termite workers and soldiers was examined as the time passed, and the mortality was calculated by the following formula.
Mortality of workers (%)=(number of dead termite workers/treated 5 termite workers+non-treated 5 termite workers)×100
Mortality of soldiers (%) (number of dead termite soldiers/non-treated 5 termite soldiers)×100

Reticulitermes speratus [4] = assay: Test Example 15: fresh pulp poison bait, termite mortality after 18 days; conditions: fresh pulp bait 0.1%
Source text: Fresh pulp (2 cm×2 cm×0.1 cm) was immersed in a methanol solution of a sample compound. Then, it was dried to obtain a fresh pulp poison bait chemical containing 0.1% of the sample compound. This poison bait chemical was placed in a cylindrical cup made of acrylic resin (i.e. a cup having a hole with a diameter of 10 mm formed in the bottom and having hard plaster (Dental Stone) set at the bottom in a thickness of 10 mm), and 20 termite workers (Reticulitermes speratus) were released thereon. The cup was placed in a container having wet cotton laid over the bottom, and the container was maintained at room temperature of 25° C. for 18 days, whereupon the number of dead termites in the cup was examined, and the mortality was calculated.

## CC(=NN=C(Cc1ccc(C(F)(F)F)cc1)c1ccc(F)cc1)N(C)C [Compound No. II-2, [4′-fluoro-2-(4-trifluoromethylphenyl)acetophenone]N′-[1-(dimethylamino)ethylidene]hydrazone]
Reticulitermes speratus [1]
  Mean weight loss: 2.9%
  Mortality Termite soldiers: 100%
  Mortality Termite workers: 100%
Priplaneta americana; 1 Day later
  Mortality: 0%
Priplaneta americana; 8 Days later
  Mortality: 0%
Priplaneta americana; 48 Days later
  Mortality: 30%
Coptotermes formosanus [2]; bait 0.005%, 4 Days later
  Mortality: 0%
Coptotermes formosanus [2]; bait 0.005%, 8 Days later
  Mortality: 0%
Coptotermes formosanus [2]; bait 0.005%, 10 Days later
  Mortality: 0%
Coptotermes formosanus [2]; bait 0.005%, 14 Days later
  Mortality: 30%
Coptotermes formosanus [2]; bait 0.005%, 17 Days later
  Mortality: 30 (30) %
  abnormal ratio: 30 (30) %
Coptotermes formosanus [2]; bait 0.005%, 23 Days later
  Mortality: 100%
Coptotermes formosanus [2]; bait 0.01%, 4 Days later
  Mortality: 0%
Coptotermes formosanus [2]; bait 0.01%, 8 Days later
  Mortality: 40%
  abnormal ratio: 60%
Coptotermes formosanus [2]; bait 0.01%, 10 Days later
  Mortality: 55%
  abnormal ratio: 45%
Coptotermes formosanus [2]; bait 0.01%, 14 Days later
  Mortality: 60%
  abnormal ratio: 40%
Coptotermes formosanus [2]; bait 0.01%, 17 Days later
  Mortality: 100%
Coptotermes formosanus [2]; bait 0.01%, 23 Days later
  Mortality: 100%
Coptotermes formosanus [2]; bait 0.05%, 4 Days later
  Mortality: 47%
Coptotermes formosanus [2]; bait 0.05%, 8 Days later
  Mortality: 47%
  abnormal ratio: 14%
Coptotermes formosanus [2]; bait 0.05%, 10 Days later
  Mortality: 80%
  abnormal ratio: 7%
Coptotermes formosanus [2]; bait 0.05%, 14 Days later
  Mortality: 100%
Coptotermes formosanus [2]; bait 0.05%, 17 Days later
  Mortality: 100%
Coptotermes formosanus [2]; bait 0.05%, 23 Days later
  Mortality: 100%
Coptotermes formosanus [2]; bait 0.1%, 4 Days later
  Mortality: 73%
Coptotermes formosanus [2]; bait 0.1%, 8 Days later
  Mortality: 100%
Coptotermes formosanus [2]; bait 0.1%, 10 Days later
  Mortality: 100%
Coptotermes formosanus [2]; bait 0.1%, 14 Days later
  Mortality: 100%
Coptotermes formosanus [2]; bait 0.1%, 17 Days later
  Mortality: 100%
Coptotermes formosanus [2]; bait 0.1%, 23 Days later
  Mortality: 100%
Coptotermes formosanus [3]; bait 0.05%, 6 Days later
  Mortality TS (Termite soldiers): 0%
  Mortality TW (Termite workers): 30%
Coptotermes formosanus [3]; bait 0.05%, 8 Days later
  Mortality TS (Termite soldiers): 0%
  Mortality TW (Termite workers): 30%
Coptotermes formosanus [3]; bait 0.05%, 15 Days later
  Mortality TS (Termite soldiers): 40%
  Mortality TW (Termite workers): 70%
Coptotermes formosanus [3]; bait 0.1%, 6 Days later
  Mortality TS (Termite soldiers): 0%
  Mortality TW (Termite workers): 50%
Coptotermes formosanus [3]; bait 0.1%, 8 Days later
  Mortality TS (Termite soldiers): 20%
  Mortality TW (Termite workers): 60%
Coptotermes formosanus [3]; bait 0.1%, 15 Days later
  Mortality TS (Termite soldiers): 100%
  Mortality TW (Termite workers): 100%
Reticulitermes speratus [4]
  Mortality: 100%
